The values that follow come from patent US11505521B2 (Biothea Pharma, Inc., priority 2018, dated 2022).

≈ marks a conversion by molar mass, not a printed value.

Data set [1] is described as follows: physchem. The settings on record: water; for Solubility: 25±2° C. As to the method: (§1) The tests were conducted using Sartorius balances (Model SQP), a Thermo HPLC (UltiMate 3000 System, UV Wavelength: 205 nm), and Phenomenex Luna columns (5 μm C18 (2), 4.6×250 mm). The column temperature was 40° C. and the autosampler temperature was room temperature. The injection volume was 5 μL.
(§2) Mobile Phase A was prepared by weighing 4.0 g tetramethylammonium bisulfate (MERYER, Batch No. 77957139) and 1.1 sodium 1-heptasulfonate (Admas-beta, Batch No. P1343755), and transferring the materials to a flask. 2 mL of 0.1 mol/L EDTA solution (Brand: Sinopharm Chemical Reagent Co., Ltd., Batch No. 20150410) was added to the flask and the volume was adjusted to 950 mL using water. The solution was mixed and adjusted to a pH of 3.5 with 0.1N sodium hydroxide solution (Brand: Enox, Batch No. 20161201). Mobile Phase B was prepared using ethanol. The isocratic elution was used in a proportion of A/B of 85/15. The run time was 8 minutes.
A standard solution was used comprising 10 mg of the standard dissolved in 10 mL of water. The test solution solutions were prepared and water was added at 25±2° C. Every 5 minutes, the solution was sonicated for 30 seconds. The dissolution was observed within 30 minutes to make sure the solution was saturated. The solution was filtered through a 0.45 μm membrane and the solution was diluted to test.

Data set [2] in a line: physchem. As to the method: The tests were conducted using Sartorius balances (Model SQP) and a potentiometric titrator (Brand: Methrom, Model No. 905 Titrando). 0.17 g of the sample was weighed and transferred into a 50 mL volumetric flask with the remainder of the volume comprising deonized water. The solution was mixed. The solution was titrated with a 0.1 mol/L NaOH solution using a pH indicator to indicate the end point.

The nature of data set [3]: physchem. The settings on record: n-octanol / pH 3.47 buffer. As to the method: as §1, §2
A hydrogen disodium phosphate solution was prepared by weighing 7.1 g of hydrogen disodium phosphate (Brand: Sinopharm Chemical Reagent Co., Ltd., Batch No. 20150910). A citric acid solution was prepared by weighing 5.25 g of hydrated citric acid (Brand: General-Reagent, Batch No. 5949-29-1) and dissolving it in 1000 mL of water. A pH 3.47 buffer solution was prepared by adjusting the pH of the hydrogen disodium phosphate solution to 3.47 with the citric acid solution. An n-octanol buffer solution was prepared by mixing 100 mL of n-octanol (Brand: Chinasun Specialty Products Co., Ltd., Batch No. 20160601) and 100 mL of the pH 3.47 buffer solution, vibrated for 24 hours, which sat for an hour to separate the n-octanol phase and the pH 3.47 buffer phase.
10 mg of the sample was dissolved in 10 mL of the saturated n-octanol solution and mixed completely. 10 mL of the saturated pH 3.47 buffer solution was added and vortexed at 3000 r/min for 1 hour. 1 mL of solution was pipetted from the n-octanol and pH 3.47 phase after an hour. A standard solution was prepared containing 1 mg/mL of the standard in diluent. An LOQ solution was prepared from about 0.1% of the standard solution. An n-octanol phase solution was diluted with 1 mL of methanol to test. The pH 3.47 phase solution was injected directly. The partition coefficient was calculated using the following formula:
[formula] wherein Co is the equilibrium concentration of solute in oil phase, and Cw is the equilibrium concentration of solute in water phase.

For data set [4] the following is noted: sublingual tablet of Example 3, 10 mg epinephrine base, receptor pH 7.4, 37° C. As to the method: The in-vitro permeability of the pharmaceutical compositions of Example 3 were tested. The tests were conducted using drug transdermal diffusion test instruments (Brand Huanghai, Model No. RJY-6B), Sartorius balances (Model SQP), an INESA pH meter (Model PHS-3E), a Thermo HPLC (UltiMate 3000 System, UV Wavelength: 205 nm), and Phenomenex Luna columns (5 μm C18 (2), 4.6×250 mm). The column temperature was 40° C. and the autosampler temperature was room temperature. The injection volume was 5 μL.
as §2, with “using methanol.” for “using ethanol.”, “was 10” for “was 8”
The in vitro diffusion of epinephrine salts were evaluated using Franz cells with an OD of 20 mm and reservoir volume of 7 mL. Dialysis membranes (Spectra/Por® dialysis membranes with 1,000 Da MWCO) were used to simulate sublingual mucous membrane in the vitro permeability tests. The assay content of the active components was detected in receiving pools. A receptor chamber with a magnetic stirrer was filled with phosphate buffer solution (pH 7.4) as the diffusion medium. The water bath was set at 37° C., and water was circulated in the Franz cells.
Each tablet was placed at the center of the donor chamber on the membrane at T0, and 2 mL of the artificial saliva (Brand: Biomart, Brand No. GL0305) was added to facilitate tablet disintegration and dissolution. Aliquots of 1 mL were withdrawn from the receptor chamber at 10, 30, 60, 90, and 120 min. The volumes withdrawn were replenished with fresh medium. Samples were transferred to HPLC vials for HPLC analysis.

In the data set “physchem [1]” (25 °C, thermodynamic from solid), `CNC[C@H](O)c1ccc(O)c(O)c1` [epinephrine bitartrate] returned a solubility at 30 min of 827 mg/mL. Also, the pKa in the data set “physchem [2]” (deionized water) was found to be 4.2. Besides, the LogP in “physchem [3]” (pH 3.47) was -2.95. The “Diffusion content (%) 120 min” value in data set [4] was 67.8%.
For epinephrine maleate, the “Solubility” value in the data set “physchem [1]” is 82.7 mg/mL. In “physchem [2]” (titrated with 0.1 mol/L NaOH), this molecule yielded a pKa of 6.12. For the same molecule, in “physchem [3]”, the LogP is −3.01. In addition, the “Diffusion content (%) 120 min” value in data set [4] is 63.5%.
Take `CNC[C@H](O)c1ccc(O)c(O)c1` [epinephrine malonate]: the “Solubility” value in “physchem [1]” is 1142.7 mg/mL (≈ 6240 mM). The molecule further came in with a pKa in the data set “physchem [2]” (titrated with 0.1 mol/L NaOH) of 5.47. Moreover, the LogP in the data set “physchem [3]” was −3.00. Also, the “Diffusion content (%) 120 min” value in data set [4] amounted to 57.5%.
